{"source": "BindingDB's records for doi:10.1016/S0960-894X(96)00609-9", "about": "(1997)", "data": [{"biological_target": "Gastrin/cholecystokinin type B receptor (Cavia porcellus)", "test": "Inhibition of [125I]Cholecystokinin-8 binding to Cholecystokinin type B receptor of guinea pig cerebral cortical membranes", "units": {"IC50": "nM"}, "values": [{"compound": "CC(=O)c1cccc(NC(=O)NC2N=C(c3ccccc3F)c3cccc(C)c3N(CC(=O)N3CC4CCC(CC4)C3)C2=O)c1", "note": "(centres undefined) [1-(3-Acetyl-phenyl)-3-[1-[2-(3-aza-bicyclo[3.2.2]non-3-yl)-2-oxo-ethyl]-5-(2-fluoro-phenyl)-9-methyl-2-oxo-2,3-dihydro-1H-benzo[e][1,4]diazepin-3-yl]-urea]", "IC50": 0.84}, {"compound": "Cc1cccc2c1N(CC(=O)N1CC3CCC(CC3)C1)C(=O)C(NC(=O)Nc1cccc(Br)c1)N=C2c1ccccc1F", "note": "(centres undefined) [1-[1-[2-(3-Aza-bicyclo[3.2.2]non-3-yl)-2-oxo-ethyl]-5-(2-fluoro-phenyl)-9-methyl-2-oxo-2,3-dihydro-1H-benzo[e][1,4]diazepin-3-yl]-3-(3-bromo-phenyl)-urea]", "IC50": 1.8}, {"compound": "Cc1cccc2c1N(CC(=O)N1CC3CCC(CC3)C1)C(=O)C(NC(=O)Nc1cccc(Cl)c1)N=C2c1ccccc1F", "note": "(centres undefined) [1-[1-[2-(3-Aza-bicyclo[3.2.2]non-3-yl)-2-oxo-ethyl]-5-(2-fluoro-phenyl)-9-methyl-2-oxo-2,3-dihydro-1H-benzo[e][1,4]diazepin-3-yl]-3-(3-chloro-phenyl)-urea]", "IC50": 2}, {"compound": "COc1cccc(NC(=O)NC2N=C(c3ccccc3F)c3cccc(C)c3N(CC(=O)N3CC4CCC(CC4)C3)C2=O)c1", "note": "(centres undefined) [1-[1-[2-(3-Aza-bicyclo[3.2.2]non-3-yl)-2-oxo-ethyl]-5-(2-fluoro-phenyl)-9-methyl-2-oxo-2,3-dihydro-1H-benzo[e][1,4]diazepin-3-yl]-3-(3-methoxy-phenyl)-urea]", "IC50": 1}, {"compound": "CSc1cccc(NC(=O)NC2N=C(c3ccccc3F)c3cccc(C)c3N(CC(=O)N3CC4CCC(CC4)C3)C2=O)c1", "note": "(centres undefined) [1-[1-[2-(3-Aza-bicyclo[3.2.2]non-3-yl)-2-oxo-ethyl]-5-(2-fluoro-phenyl)-9-methyl-2-oxo-2,3-dihydro-1H-benzo[e][1,4]diazepin-3-yl]-3-(3-methylsulfanyl-phenyl)-urea]", "IC50": 0.37}, {"compound": "Cc1cccc(NC(=O)NC2N=C(c3ccccc3F)c3cccc(C)c3N(CC(=O)N3CC4CCC(CC4)C3)C2=O)c1", "note": "(centres undefined) [1-[1-[2-(3-Aza-bicyclo[3.2.2]non-3-yl)-2-oxo-ethyl]-5-(2-fluoro-phenyl)-9-methyl-2-oxo-2,3-dihydro-1H-benzo[e][1,4]diazepin-3-yl]-3-m-tolyl-urea]", "IC50": 0.47}, {"compound": "Cc1cccc2c1N(CC(=O)N1CC3CCC(CC3)C1)C(=O)C(NC(=O)Nc1cccc(C(=O)O)c1)N=C2c1ccccc1F", "note": "(centres undefined) [3-{3-[1-[2-(3-Aza-bicyclo[3.2.2]non-3-yl)-2-oxo-ethyl]-5-(2-fluoro-phenyl)-9-methyl-2-oxo-2,3-dihydro-1H-benzo[e][1,4]diazepin-3-yl]-ureido}-benzoic acid]", "IC50": 0.96}, {"compound": "Cc1cccc(NC(=O)NC2N=C(c3ccccc3F)c3ccccc3N(CC(=O)N3CC4CCC(CC4)C3)C2=O)c1", "note": "(centres undefined) [FR-175985]", "IC50": 0.087}]}, {"biological_target": "not listed separately", "test": "Inhibition of [125I]-Cholecystokinin-8 (125I-CCK-8) binding to Cholecystokinin type B receptor of guinea pig cerebral cortical membranes", "units": {"IC50": "nM"}, "values": [{"compound": "Cc1cccc2c1N(CC(=O)N1CC3CCC(CC3)C1)C(=O)C(NC(=O)Nc1cccc(-c3nnn[nH]3)c1)N=C2c1ccccc1F", "note": "(centres undefined) [1-[1-[2-(3-Aza-bicyclo[3.2.2]non-3-yl)-2-oxo-ethyl]-5-(2-fluoro-phenyl)-9-methyl-2-oxo-2,3-dihydro-1H-benzo[e][1,4]diazepin-3-yl]-3-[3-(1H-tetrazol-5-yl)-phenyl]-urea]", "IC50": 6.4}]}]}
